Test results: ChEMBL document CHEMBL4825741, “Novel Histone Acetyltransferase (HAT) Inhibitors for Treating Diseases” (ACS Med Chem Lett, 2021)

Test: Inhibition of p300/CBP HAT (unknown origin) by scintillation proximity assay
Parameters: species or system Homo sapiens

IC50 | Compound
0.014 µM | CC(=O)N1CC(Oc2ccc(NC(=O)[C@@H](NC[C@@H](C)c3ccc(C#N)cc3)c3ccccc3)nc2)C1
0.0233 µM | CC(=O)N1CC(Oc2ccc(NC(=O)[C@H](NCC(C)c3ccc(C#N)cc3)c3cccc(F)c3)nc2)C1 (stereo partly specified)
0.0168 µM | Cn1cc(COc2ccc(NC(=O)[C@@H](NCCc3ccc(Cl)cc3)c3ccccc3)nc2)cn1
0.0266 µM | CN1CCC(Oc2ccc(NC(=O)[C@H](NCCc3ccc(Cl)cc3)c3ccccc3)nc2)CC1
0.0267 µM | CC(CN[C@H](C(=O)Nc1ccc(OC2CCN(C(=O)C3CC3)CC2)cn1)c1ccccc1)c1ccc(C#N)cc1 (stereo partly specified)
0.0212 µM | CC(=O)N1CC(Oc2ccc(NC(=O)[C@H](NC[C@@H](C)c3ccc(C#N)cc3)c3ccccc3)nc2)C1
